The text below walks through data of ChEMBL document CHEMBL1201862, “PubChem BioAssay data set” (2004).

Among the test systems are PC-3; M14; NCI-H522; MCF7; HOP-92; NCI-H226; SN12C; SW-620; NCI/ADR-RES; HCT-15; HT-29; SK-MEL-2; MDA-MB-231; 786-0; HL-60; MDA-MB-435; OVCAR-4; NCI-H23.
What all share (assay): inhibition of tumour cell growth, NCI panel, 48 h

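Grown in 96-well plates, cells were treated for 48 hours with each compound at five concentrations. Insufficient inhibition: endpoint recorded as highest concentration tested. GI50 marks 50% less growth.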 Active and inactive are the calls of the source. Rule as the data show it: active = GI50 up to about 1.1 µM and inactive = higher. Some results are limits rather than exact numbers.

On to `COc1ccc(C2=NN(C(=O)c3ccccc3)C(O)(c3cc(F)c(Cl)cc3Cl)C2)cc1OC` (configuration not stated), for which the GI50 in the assay on PC-3 is 31.3 µM (inactive); in the assay on M14, 73.6 µM (inactive); in the assay on NCI-H522, 56.1 µM (inactive); in the assay with MCF7, 32.1 µM (inactive); in the assay with HOP-92, 21.4 µM (inactive); in the assay on NCI-H226 it was > 100 µM (inactive). Moreover, the GI50 was 94.4 µM (inactive) in the assay with SN12C; > 100 µM (inactive) in the assay with SW-620; 62.1 µM (inactive) with NCI/ADR-RES; greater than 100 µM with HCT-15; 23.5 µM (inactive) with HT-29; 29 µM (inactive) with SK-MEL-2. Further, the GI50 in the assay on MDA-MB-231 is 42.2 µM (inactive); with 786-0, 30.3 µM (inactive); with HL-60, > 100 µM (inactive); in the assay on MDA-MB-435 it was 31.8 µM (inactive); with OVCAR-4, 18.5 µM (inactive); in the assay with NCI-H23, 42.3 µM (inactive).
In the case of `O=C1N/C(=N/N=C/C(O)C(O)C(O)C(O)CO)N/C1=C\c1c[nH]c2ccccc12` (configuration not stated), the GI50 with PC-3 was 20.3 µM (inactive); in the assay with M14 it was > 100 µM (inactive); in the assay on NCI-H522, 54.1 µM (inactive); in the assay on MCF7 it was > 100 µM (inactive); with HOP-92, > 100 µM (inactive); with NCI-H226, > 100 µM (inactive). Also, the GI50 with SN12C was > 100 µM (inactive); in the assay with SW-620, > 100 µM (inactive); with NCI/ADR-RES it was > 100 µM (inactive); in the assay on HCT-15, greater than 100 µM; in the assay on HT-29 it was 57.7 µM (inactive); in the assay with SK-MEL-2, 28.3 µM (inactive). For the same molecule, the GI50 in the assay with MDA-MB-231 was 34.2 µM (inactive); in the assay on 786-0 it was > 100 µM (inactive); in the assay with HL-60 it was 48.4 µM (inactive); in the assay on MDA-MB-435 it was > 100 µM (inactive); in the assay on OVCAR-4 it was > 100 µM (inactive); in the assay on NCI-H23 it was > 100 µM (inactive).
`CCOC(=O)c1nc(SC)sc1NC(=O)c1ccc(OC)cc1`: the GI50 was > 100 µM (inactive) in the assay with PC-3; > 100 µM (inactive) in the assay on M14; > 100 µM (inactive) in the assay with NCI-H522; 46.5 µM (inactive) in the assay on MCF7; > 100 µM (inactive) with HOP-92; 28.1 µM (inactive) in the assay with NCI-H226. The GI50 in the assay on SN12C was 37.9 µM (inactive); in the assay on SW-620, 49.1 µM (inactive); in the assay with NCI/ADR-RES it was > 100 µM (inactive); in the assay on HCT-15, greater than 100 µM; in the assay with HT-29 it was 66.2 µM (inactive); in the assay with SK-MEL-2, > 100 µM (inactive). In addition, the GI50 with MDA-MB-231 was 35.2 µM (inactive); in the assay on 786-0 it was 20.5 µM (inactive); in the assay with HL-60 it was > 100 µM (inactive); with MDA-MB-435, > 100 µM (inactive); in the assay with OVCAR-4, 29.2 µM (inactive); in the assay with NCI-H23 it was > 100 µM (inactive).
On to `CCOC(=O)C(Cc1ccc(OC(=O)c2ccc(OC)cc2)cc1)NC(=O)C(F)(F)F` (configuration not stated), for which the GI50 with PC-3 is > 100 µM (inactive); in the assay on M14, > 100 µM (inactive); in the assay on NCI-H522, > 100 µM (inactive); with MCF7, > 100 µM (inactive); in the assay with HOP-92, 45.8 µM (inactive); in the assay on NCI-H226, > 100 µM (inactive). In addition, the GI50 with SN12C was > 100 µM (inactive); in the assay on SW-620 it was > 100 µM (inactive); in the assay with NCI/ADR-RES, > 100 µM (inactive); in the assay on HCT-15, greater than 100 µM; in the assay with HT-29 it was > 100 µM (inactive); in the assay on SK-MEL-2 it was > 100 µM (inactive). Moreover, the GI50 was 77.6 µM (inactive) in the assay on MDA-MB-231; > 100 µM (inactive) in the assay with 786-0; > 100 µM (inactive) with HL-60; > 100 µM (inactive) in the assay on MDA-MB-435; 87.7 µM (inactive) in the assay on OVCAR-4; 45.2 µM (inactive) in the assay on NCI-H23.
